Measurements taken from patent US20240368556A1, “LIVER ORGANOID MODEL FOR HYPERBILIRUBINEMIA AND METHODS OF MAKING AND USING SAME” (CHILDREN’S HOSPITAL MEDICAL CENTER, priority 2021, published 2024).
“Also recorded” adds a separate entry of the source.

Key:
Type in all cases: cell-based, human
UGT1A1 = assay: RT-qPCR of UGT1A1 in liver organoids; settings: 10 mg/L bilirubin plus drug vs 10 mg/L bilirubin alone (FIG. 4E)
Method: (§1) On day 27, the mature organoids were treated with bilirubin (1-10 mg/L), doxycycline (100 ng/mL; added 3 days prior to activate gene expression) and/or additionally with drugs such as hydrocortisone, dexamethasone, ketoconazole and mifepristone (1-2 μM for each) for 5 days and then harvested for downstream assays. Bilirubin assay was performed using a colorimetric kit (ab235627 from Abcam). RNA was isolated using the RNeasy mini kit (Qiagen, Hilden, Germany). Reverse transcription was carried out using the High-Capacity cDNA Reverse Transcription Kit (Thermo Fisher Scientific Inc.) according to manufacturer's protocol. qPCR was carried out using TaqMan gene expression master mix (Applied Biosystems) on a QuantStudio 5 Real-Time PCR System (Thermo Fisher Scientific Inc.). All primers and probe information for each target gene was obtained from the Universal ProbeLibrary Assay Design Center (available on the World Wide Web at lifescience.roche.com/en_us/brands/universal-probe-library.html). Images were captured on the KEYENCE BZ-X710 Fluorescence Microscope (Keyence).

liver organoids [1] = assay: Bilirubin assay measuring unconjugated and conjugated bilirubin in liver organoids; settings: liver organoids in 10 mg/L bilirubin; drug 1 or 5 μM (FIG. 4B, 4D)
Method: Bilirubin levels were measured by collecting the supernatant from HLOs treated with bilirubin and serum from rats. The supernatant and serum were assayed with Bilirubin Assay Kit (Total and Direct, Colorimetric) (abcam) and Bilirubin Assay Kit (Sigma-Aldrich) according to manufacturer instructions.

mGULO organoids = assay: Survival and morphology of mGULO organoids with doxycycline induction; settings: Dox 10, 100, 1000 ng/mL, with bilirubin (FIG. 2O)
CYP1A2 = CYP1A2 activity assay (P450-Glo) after omeprazole
Method: (§2) CYP3A4 and CYP1A2 assays were performed by harvesting HLOs, washing in PBS, plating them into a 96 well assay plate, and treating them with rifampicin and omeprazole, respectively, for 24 hours. The assays were then performed using P450-Glo CYP3A4 and CYP1A2 Assay (Promega) and normalized using CellTiter-Glo Luminescent Cell Viability Assay according to manufacturer instructions.

CYP3A4 = CYP3A4 activity assay (P450-Glo) after rifampicin
Method: as §2

NRF2 = assay: RT-qPCR of NRF2 in liver organoids; settings: 10 mg/L bilirubin plus drug vs 10 mg/L bilirubin alone (FIG. 4E)
Method: as §1

UGT1A1 gene = assay: ChIP-PCR and ChIP-qPCR of hyperbilirubinemic organoids; settings: 10 mg/L bilirubin, 1 μM drug (FIG. 4H)
liver organoids [2] = assay: RNA sequencing of HLOs; settings: 10 mg/L bilirubin and 1 μM mifepristone vs control (FIG. 4F)
Method: RNA was isolated using the RNeasy mini kit (Qiagen). […] All the samples were amplified with TaqMan Gene Expression Assays and normalized with 18S rRNA Endogenous Control. For RNA sequencing, the extracted RNA quality was evaluated with an Agilent 2100 Bioanalyzer (Agilent). A sequence library was prepared using a TruSeq Stranded mRNA kit (Illumina) and sequenced using NovaSeq 6000 (Illumina). Reads were aligned to human genome assembly hg38 and quantified using the quasi-mapper Salmon (v1.8.0). Gene-expression analysis was performed using the R Bioconductor package DESeq2 (v1.36.0). The read count matrix was normalized by size factors, and a variance stabilizing transformation (VST) was applied to the normalized expression data. The data was visualized using clusterProfiler (v.4.4.1) and pheatmap (v1.0.12) packages. […] RNA sequencing parameters were 150 bp paired-end sequencing at a depth of 20M reads per samples. Fastq read files for each sample were obtained and then aligned using Salmon, a quasi-mapping tool that aligns and quantifies transcripts using RNA-seq data. Raw transcript counts and normalized transcripts per million (TPM) values were obtained and analyzed for differential expression with DESeq2. […]

liver organoids [3] = assay: Hyperbilirubinemia induction: HLOs treated with varying bilirubin concentrations (brightfield); settings: bilirubin 1, 2, 5 or 10 mg/L, 1 and 4 days (FIG. 3B)
Method: as §1

liver organoids [4] = assay: Immunofluorescence of mature liver enzymes and transport proteins; settings: 1 mg/L bilirubin (FIGS. 1F-H)
Method: For maturation induction in HLOs, the day 15 organoids were fed with complete HCM with supplements in addition to low dose bilirubin (1 mg/L). This treatment was continued until day 30 when the organoids were harvested. […] For whole mount immunostains, the organoids were fixed in 4% PFA, permeabilized with 0.1% PBST, blocked with 5% Normal Donkey Serum in 0.1% PBST, and stained with the appropriate primary and secondary antibodies. The images were captured on the Nikon A1 inverted confocal microscope.

CNS HLOs = assay: Bilirubin toxicity in Crigler-Najjar syndrome liver organoids (brightfield); settings: 10 mg/L bilirubin, inactive UGT1A1 gene (FIG. 3H)
Method: On day 27, the mature organoids were treated with bilirubin (1-10 mg/L), doxycycline (100 ng/mL; added 3 days prior to activate gene expression) and/or additionally with drugs such as hydrocortisone, dexamethasone, ketoconazole and mifepristone (1-2 μM for each) for 5 days and then harvested for downstream assays. […] Images were captured on the KEYENCE BZ-X710 Fluorescence Microscope (Keyence).

SMILES: C[C@]12CCC(=O)C=C1CC[C@@H]1[C@@H]2[C@@H](O)C[C@@]2(C)[C@H]1CC[C@]2(O)C(=O)CO [hydrocortisone]
- UGT1A1 expression (UGT1A1): depressed
- bilirubin conjugation (unconjugated vs conjugated bilirubin) (liver organoids [1]): decreased bilirubin conjugation ability

SMILES: C[C@H]1c2cccc(O)c2C(=O)C2=C(O)[C@]3(O)C(=O)C(C(N)=O)=C(O)[C@@H](N(C)C)[C@@H]3[C@@H](O)[C@@H]21 [doxycycline]
- gross morphology of mGULO organoids (mGULO organoids): maintain their gross morphology
- CYP1A2 activity (CYP1A2; mGULO organoids, Dox plus low dose bilirubin, omeprazole insult (FIG. 2P)): increased
- CYP3A4 activity (CYP3A4; mGULO organoids, Dox plus low dose bilirubin, rifampicin insult (FIG. 2P)): increased

SMILES: CC(=O)N1CCN(c2ccc(OCC3COC(Cn4ccnc4)(c4ccc(Cl)cc4Cl)O3)cc2)CC1 (stereo not drawn) [ketoconazole]
- UGT1A1 expression (UGT1A1): elevated
- bilirubin conjugation (unconjugated vs conjugated bilirubin) (liver organoids [1]): improved conjugation and metabolism of bilirubin; also recorded: increased bilirubin conjugation
- NRF2 expression (NRF2): improved

SMILES: CC#C[C@]1(O)CC[C@H]2[C@@H]3CCC4=CC(=O)CCC4=C3[C@@H](c3ccc(N(C)C)cc3)C[C@@]21C [mifepristone]
- silencing of the UGT1A1 gene (MECP2) (UGT1A1 gene): reverses this silencing
- UGT1A1 expression (UGT1A1): elevated
- bilirubin conjugation (unconjugated vs conjugated bilirubin) (liver organoids [1]): improved conjugation and metabolism of bilirubin; also recorded: increased bilirubin conjugation
- gene expression / enriched pathways (liver organoids [2]): enrichment of many genes involved in liver function
- NRF2 expression (NRF2): improved

SMILES: C=CC1=C(C)/C(=C/c2[nH]c(Cc3[nH]c(/C=C4\NC(=O)C(C)=C4C=C)c(C)c3CCC(=O)O)c(CCC(=O)O)c2C)NC1=O [bilirubin]
- organoid morphology and intracellular bilirubin accumulation (liver organoids [3]): significant morphological changes and intracellular accumulation of bilirubin
- expression of CYP2E1, CYP7A1, MPR1, MRP3, PROX1, OATP2 (immunofluorescence) (liver organoids [4]): expressed mature liver enzymes and transport proteins
- CYP1A2 activity (CYP1A2; 1 mg/L bilirubin-treated organoids, after omeprazole, vs untreated control (FIG. 1E)): increased cytochrome activity
- organoid toxicity in CNS HLOs (CNS HLOs): liver organoid toxicity
- CYP3A4 activity (CYP3A4; 1 mg/L bilirubin-treated organoids, after rifampicin, vs untreated control (FIG. 1E)): increased cytochrome activity
